Where two headings read alike, the source gives them in different places. Peptide text beside a SMILES is read from it. * marks the point of attachment. Biotin = O=C1N[C@H]2[C@H](CS[C@H]2CCCCC(=O)*)N1
Key:
Experiment in all cases: Apparent affinity (Kd) by titration of PL peptide in the G assay
Format in all cases: binding
[1] = target: T1, PDZ-domain polypeptide (GST/PDZ fusion protein) (Homo sapiens, UniProt Q86UL8); settings: PDZ atrophin-1 interacting Protein
T1 construct: made in house; host or cells: E. coli (DH5alpha, BL21 or JM109)
Summary of the method: (§1)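 A fixed concentration of GST/PDZ fusion protein, 5 ug/ml by default, was mixed in solution with increasing labeled PL peptide (e.g. 0.1 uM-1 mM). Reaction times ranged from 10 minutes to 2 days at 4-37° C. Complexes were separated from free peptide and detected via the label as in the G assay, apparent affinity coming from the saturating concentration.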

[2] = target: T2, PDZ-domain polypeptide (GST/PDZ fusion protein) (Homo sapiens, UniProt Q6P0Q8)
T2 construct: made in house; host or cells: E. coli (DH5alpha, BL21 or JM109)
Summary of the method: as §1

[3] = target: T3, PDZ-domain polypeptide (GST/PDZ fusion protein) (Homo sapiens, UniProt Q92796); settings: PDZ NeDLG
T3 construct: made in house; host or cells: E. coli (DH5alpha, BL21 or JM109)
T3 sequence (Q92796 1-817): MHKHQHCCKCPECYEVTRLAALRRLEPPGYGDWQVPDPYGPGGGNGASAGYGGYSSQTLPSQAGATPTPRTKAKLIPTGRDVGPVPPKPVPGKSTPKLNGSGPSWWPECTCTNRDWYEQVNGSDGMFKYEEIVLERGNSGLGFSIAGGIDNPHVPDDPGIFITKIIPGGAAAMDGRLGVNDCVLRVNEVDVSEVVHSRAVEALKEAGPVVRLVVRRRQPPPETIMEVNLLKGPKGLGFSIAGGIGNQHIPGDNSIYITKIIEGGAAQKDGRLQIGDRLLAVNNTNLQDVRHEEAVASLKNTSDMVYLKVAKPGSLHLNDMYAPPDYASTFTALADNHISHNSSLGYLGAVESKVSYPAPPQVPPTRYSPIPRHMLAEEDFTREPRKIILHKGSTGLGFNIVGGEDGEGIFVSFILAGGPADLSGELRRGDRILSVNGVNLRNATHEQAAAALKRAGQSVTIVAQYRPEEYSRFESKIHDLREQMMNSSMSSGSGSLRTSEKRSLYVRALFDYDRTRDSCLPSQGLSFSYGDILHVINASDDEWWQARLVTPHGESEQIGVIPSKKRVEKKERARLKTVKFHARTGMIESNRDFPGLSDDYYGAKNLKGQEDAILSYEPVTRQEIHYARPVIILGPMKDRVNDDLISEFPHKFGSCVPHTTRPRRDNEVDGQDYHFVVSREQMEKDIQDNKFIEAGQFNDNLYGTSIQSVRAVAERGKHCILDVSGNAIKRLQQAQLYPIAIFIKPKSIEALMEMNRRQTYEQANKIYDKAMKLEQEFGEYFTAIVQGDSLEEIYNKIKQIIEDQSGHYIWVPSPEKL
Summary of the method: as §1

[4] = PDZ KIAA0807(S), PDZ Domain 1, read-out: Peptide Optimal Conc (Kd by titration of the PL peptide)
[5] = PDZ Domain 2, read-out: Peptide Optimal Conc (Kd by titration of the PL peptide)

T1 sequence (Q86UL8 whole entry, the tested form may be a part): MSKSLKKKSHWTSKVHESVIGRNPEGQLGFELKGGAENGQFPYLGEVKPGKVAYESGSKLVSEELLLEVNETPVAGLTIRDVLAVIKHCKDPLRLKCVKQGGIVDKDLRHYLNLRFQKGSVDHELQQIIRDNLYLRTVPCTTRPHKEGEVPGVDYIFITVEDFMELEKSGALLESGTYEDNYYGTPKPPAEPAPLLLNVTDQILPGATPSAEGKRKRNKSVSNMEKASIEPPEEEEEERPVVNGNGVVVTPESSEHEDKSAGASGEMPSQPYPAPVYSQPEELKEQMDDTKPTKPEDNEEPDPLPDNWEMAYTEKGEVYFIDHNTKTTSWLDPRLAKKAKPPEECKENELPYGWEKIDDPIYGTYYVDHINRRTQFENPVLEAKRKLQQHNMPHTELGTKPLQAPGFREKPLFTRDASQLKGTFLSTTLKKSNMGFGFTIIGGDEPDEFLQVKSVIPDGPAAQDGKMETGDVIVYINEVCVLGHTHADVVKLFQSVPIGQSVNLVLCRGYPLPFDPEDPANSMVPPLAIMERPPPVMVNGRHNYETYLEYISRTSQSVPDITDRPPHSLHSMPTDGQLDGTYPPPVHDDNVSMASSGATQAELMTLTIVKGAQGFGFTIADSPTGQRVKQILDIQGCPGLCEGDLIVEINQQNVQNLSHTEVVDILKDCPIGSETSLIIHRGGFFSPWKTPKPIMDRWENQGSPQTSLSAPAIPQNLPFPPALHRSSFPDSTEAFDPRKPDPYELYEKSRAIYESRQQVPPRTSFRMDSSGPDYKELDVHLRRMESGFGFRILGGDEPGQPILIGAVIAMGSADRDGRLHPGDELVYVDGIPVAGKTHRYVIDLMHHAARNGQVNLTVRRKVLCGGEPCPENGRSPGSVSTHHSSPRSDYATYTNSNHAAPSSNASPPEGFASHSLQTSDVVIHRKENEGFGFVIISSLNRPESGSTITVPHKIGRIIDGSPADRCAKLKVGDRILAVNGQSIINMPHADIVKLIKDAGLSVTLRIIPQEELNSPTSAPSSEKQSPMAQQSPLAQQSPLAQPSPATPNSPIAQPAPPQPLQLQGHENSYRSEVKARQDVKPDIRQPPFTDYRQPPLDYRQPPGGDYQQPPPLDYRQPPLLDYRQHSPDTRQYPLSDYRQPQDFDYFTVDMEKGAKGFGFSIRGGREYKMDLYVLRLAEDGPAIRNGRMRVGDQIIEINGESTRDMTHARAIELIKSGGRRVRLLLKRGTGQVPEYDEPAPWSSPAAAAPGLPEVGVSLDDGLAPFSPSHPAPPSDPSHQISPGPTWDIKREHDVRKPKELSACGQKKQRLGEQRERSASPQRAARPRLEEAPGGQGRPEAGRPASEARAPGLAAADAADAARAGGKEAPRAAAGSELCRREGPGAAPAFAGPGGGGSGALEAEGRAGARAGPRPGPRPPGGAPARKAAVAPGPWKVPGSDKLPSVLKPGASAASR
T2 sequence (Q6P0Q8 whole entry, the tested form may be a part): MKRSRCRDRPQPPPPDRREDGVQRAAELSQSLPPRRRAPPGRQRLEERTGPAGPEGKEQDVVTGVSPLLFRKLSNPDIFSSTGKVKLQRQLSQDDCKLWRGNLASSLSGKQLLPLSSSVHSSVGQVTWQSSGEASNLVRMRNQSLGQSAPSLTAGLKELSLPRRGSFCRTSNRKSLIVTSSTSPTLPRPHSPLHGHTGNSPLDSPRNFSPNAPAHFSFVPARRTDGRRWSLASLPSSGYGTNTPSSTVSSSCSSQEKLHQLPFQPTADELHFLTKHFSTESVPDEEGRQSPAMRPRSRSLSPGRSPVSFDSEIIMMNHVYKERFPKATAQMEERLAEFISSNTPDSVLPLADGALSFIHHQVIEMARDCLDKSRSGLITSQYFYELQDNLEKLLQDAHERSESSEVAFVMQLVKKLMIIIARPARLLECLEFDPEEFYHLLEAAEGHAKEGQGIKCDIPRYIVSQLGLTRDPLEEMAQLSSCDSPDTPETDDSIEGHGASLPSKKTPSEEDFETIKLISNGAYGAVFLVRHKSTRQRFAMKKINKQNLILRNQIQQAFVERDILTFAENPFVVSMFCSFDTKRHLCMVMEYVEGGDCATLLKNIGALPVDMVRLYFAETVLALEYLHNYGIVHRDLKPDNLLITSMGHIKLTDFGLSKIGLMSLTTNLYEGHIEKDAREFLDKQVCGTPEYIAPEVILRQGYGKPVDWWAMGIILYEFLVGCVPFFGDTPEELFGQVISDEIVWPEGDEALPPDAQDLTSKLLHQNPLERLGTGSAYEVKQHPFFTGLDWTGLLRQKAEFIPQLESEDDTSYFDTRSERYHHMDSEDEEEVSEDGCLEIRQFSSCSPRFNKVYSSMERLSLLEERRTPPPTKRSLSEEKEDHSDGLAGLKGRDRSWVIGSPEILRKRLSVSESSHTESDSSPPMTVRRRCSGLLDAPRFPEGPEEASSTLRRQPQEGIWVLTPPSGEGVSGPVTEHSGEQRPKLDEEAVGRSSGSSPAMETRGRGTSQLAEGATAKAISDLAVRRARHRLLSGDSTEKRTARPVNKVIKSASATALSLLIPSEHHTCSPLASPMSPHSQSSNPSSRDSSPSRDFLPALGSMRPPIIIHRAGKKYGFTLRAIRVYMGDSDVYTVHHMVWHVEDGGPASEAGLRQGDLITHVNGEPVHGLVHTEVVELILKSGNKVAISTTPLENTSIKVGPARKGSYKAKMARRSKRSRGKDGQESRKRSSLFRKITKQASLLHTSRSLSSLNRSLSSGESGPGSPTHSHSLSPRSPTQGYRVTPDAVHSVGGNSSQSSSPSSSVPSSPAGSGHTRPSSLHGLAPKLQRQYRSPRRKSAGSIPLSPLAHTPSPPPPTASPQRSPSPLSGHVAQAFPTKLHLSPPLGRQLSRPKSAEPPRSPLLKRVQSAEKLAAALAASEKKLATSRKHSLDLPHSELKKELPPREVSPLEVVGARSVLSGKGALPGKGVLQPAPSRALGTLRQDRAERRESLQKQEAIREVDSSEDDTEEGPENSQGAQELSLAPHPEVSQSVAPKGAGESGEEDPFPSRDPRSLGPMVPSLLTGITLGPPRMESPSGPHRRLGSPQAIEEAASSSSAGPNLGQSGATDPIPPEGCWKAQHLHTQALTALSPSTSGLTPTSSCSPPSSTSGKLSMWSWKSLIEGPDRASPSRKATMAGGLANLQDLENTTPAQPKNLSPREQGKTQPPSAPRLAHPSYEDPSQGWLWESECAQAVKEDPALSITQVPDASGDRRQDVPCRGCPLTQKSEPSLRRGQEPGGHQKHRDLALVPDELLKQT

For `CC[C@H](C)[C@H](NC(=O)[C@H](CC(=O)O)NC(=O)[C@H](CCC(=O)O)NC(=O)[C@H](CCCNC(=N)N)NC(=O)[C@@H](NC(=O)CCCC[C@@H]1SC[C@@H]2NC(=O)N[C@@H]21)[C@@H](C)O)C(=O)N[C@@H](Cc1ccc(O)cc1)C(=O)N[C@H](C(=O)N[C@@H](CC(N)=O)C(=O)N[C@@H](Cc1ccc(O)cc1)C(=O)N1CCC[C@H]1C(=O)N[C@H](C(=O)N[C@@H](Cc1ccccc1)C(=O)N[C@@H](CO)C(=O)N[C@@H](CCCNC(=N)N)C(=O)N[C@@H](CCCNC(=N)N)C(=O)N1CCC[C@H]1C(=O)N[C@@H](CCCCN)C(=O)N[C@H](C(=O)N[C@@H](CCCNC(=N)N)C(=O)N[C@H](C(=O)O)C(C)C)[C@@H](C)O)[C@@H](C)O)C(C)C` [DNAM-1] (Biotin-TREDIYVNYPTFSRRPKTRV-OH; C-terminus assumed), the Kd ([1]; Peptide Optimal Conc (Kd by titration of the PL peptide), PDZ Domain 1) was 3 µM, the Kd ([2]; Peptide Optimal Conc (Kd by titration of the PL peptide), PDZ KIAA807) was 2 µM and the Kd ([2]; Peptide Optimal Conc (Kd by titration of the PL peptide), PDZ KIAA0807(S), PDZ Domain 1) was 2 µM.

`CC(C)C[C@H](NC(=O)[C@H](Cc1c[nH]c2ccccc12)NC(=O)[C@H](Cc1c[nH]cn1)NC(=O)[C@H](CCCNC(=N)N)NC(=O)[C@H](CC(C)C)NC(=O)[C@@H](NC(=O)[C@H](Cc1ccccc1)NC(=O)[C@H](CCC(N)=O)NC(=O)[C@H](CCCNC(=N)N)NC(=O)[C@@H](NC(=O)[C@H](CCC(=O)O)NC(=O)CNC(=O)[C@H](CCCNC(=N)N)NC(=O)[C@H](CC(=O)O)NC(=O)[C@@H](NC(=O)[C@H](CC(C)C)NC(=O)[C@H](CCC(=O)O)NC(=O)[C@H](CCCNC(=N)N)NC(=O)CCCC[C@@H]1SC[C@@H]2NC(=O)N[C@@H]21)C(C)C)C(C)C)[C@@H](C)O)C(=O)N[C@@H](CCCCN)C(=O)N[C@H](C(=O)O)C(C)C` [Dopamine transporter (Na+-dependent)] (Biotin-RELVDRGEVRQFTLRHWLKV-OH; C-terminus assumed) showed a Kd [2, 4] of 0.4 µM and a Kd ([2]; PDZ KIAA807, read-out: Peptide Optimal Conc (Kd by titration of the PL peptide)) of 0.4 µM.

With `CC(C)C[C@H](NC(=O)CNC(=O)[C@@H](NC(=O)[C@H](CO)NC(=O)[C@H](CC(N)=O)NC(=O)[C@H](Cc1ccccc1)NC(=O)CNC(=O)[C@H](C)NC(=O)[C@H](C)NC(=O)[C@H](Cc1ccccc1)NC(=O)[C@@H](NC(=O)CCCC[C@@H]1SC[C@@H]2NC(=O)N[C@@H]21)[C@@H](C)O)[C@@H](C)O)C(=O)N1CCC[C@H]1C(=O)N[C@@H](Cc1c[nH]cn1)C(=O)N[C@@H](CO)C(=O)N[C@H](C(=O)N[C@H](C(=O)N[C@@H](CCCNC(=N)N)C(=O)N[C@H](C(=O)O)C(C)C)[C@@H](C)O)[C@@H](C)O` [Neuroligin] (Biotin-TFAAGFNSTGLPHSTTRV-OH; C-terminus assumed) the Kd ([1]; PDZ Domain 1, read-out: Peptide Optimal Conc (Kd by titration of the PL peptide)) was 0.25 µM.

For `CC[C@H](C)[C@H](NC(=O)[C@H](CO)NC(=O)[C@@H](NC(=O)[C@H](Cc1ccccc1)NC(=O)[C@H](CO)NC(=O)CCCC[C@@H]1SC[C@@H]2NC(=O)N[C@@H]21)[C@@H](C)O)C(=O)N[C@@H](CC(C)C)C(=O)N[C@H](C(=O)N[C@@H](CS)C(=O)N[C@@H](Cc1c[nH]cn1)C(=O)N[C@@H](CCC(N)=O)C(=O)N[C@@H](CCCNC(=N)N)C(=O)N[C@@H](CCCNC(=N)N)C(=O)N[C@H](C(=O)N[C@@H](CCC(N)=O)C(=O)N[C@@H](CCCNC(=N)N)C(=O)N[C@@H](CCCCN)C(=O)N[C@@H](CCC(=O)O)C(=O)N[C@H](C(=O)N[C@H](C(=O)N[C@@H](C)C(=O)O)C(C)C)[C@@H](C)O)[C@@H](C)O)[C@@H](C)O` [GluR5-2 (rat)], the Kd ([3]; PDZ Domain 1, 2, titration of the PL peptide, read-out: Peptide Optimal Conc (Kd, dissociation constant)) was 0.1 µM.

Molecule `CC[C@H](C)[C@H](NC(=O)[C@H](CCCCN)NC(=O)[C@@H](NC(=O)[C@H](CO)NC(=O)[C@@H]1CCCN1C(=O)[C@H](Cc1ccccc1)NC(=O)[C@@H](NC(=O)[C@@H](NC(=O)[C@H](CCCNC(=N)N)NC(=O)[C@H](CCC(=O)O)NC(=O)[C@H](CC(C)C)NC(=O)[C@H](CC(C)C)NC(=O)[C@H](CC(C)C)NC(=O)[C@@H](NC(=O)CNC(=O)[C@@H](NC(=O)CCCC[C@@H]1SC[C@@H]2NC(=O)N[C@@H]21)C(C)C)[C@@H](C)O)C(C)C)[C@@H](C)CC)C(C)C)C(=O)N[C@@H](C)C(=O)N[C@H](C(=O)N[C@@H](CC(C)C)C(=O)N[C@H](C(=O)O)C(C)C)[C@@H](C)O` [Adenovirus E4 Type9] has a Kd ([3]; PDZ Domain 2, Protein Optimal Conc 5, read-out: Peptide Optimal Conc (Kd by titration of the PL peptide)) of 0.1 µM, a Kd ([1]; PDZ Domain 1, Protein Optimal Conc 0.5, read-out: Peptide Optimal Conc (Kd by titration of the PL peptide)) of 0.02 µM and a Kd ([1]; PDZ Domain 3, Protein Optimal Conc 5, read-out: Peptide Optimal Conc (Kd by titration of the PL peptide)) of 0.1 µM. It also gave a Kd ([2]; PDZ KIAA0807(S), PDZ Domain 1, Protein Optimal Conc 5, read-out: Peptide Optimal Conc (Kd by titration of the PL peptide)) of 0.2 µM.

Work on `CC(C)C[C@H](NC(=O)[C@H](C)NC(=O)[C@H](CO)NC(=O)CNC(=O)[C@@H](NC(=O)CCCC[C@@H]1SC[C@@H]2NC(=O)N[C@@H]21)[C@@H](C)O)C(=O)N[C@@H](CCC(N)=O)C(=O)N[C@@H](C)C(=O)N[C@@H](Cc1c[nH]c2ccccc12)C(=O)N[C@@H](CCCNC(=N)N)C(=O)N[C@@H](Cc1c[nH]cn1)C(=O)N[C@H](C(=O)N[C@@H](CO)C(=O)N[C@@H](CCCNC(=N)N)C(=O)N[C@@H](CCC(N)=O)C(=O)N[C@@H](C)C(=O)N[C@H](C(=O)N[C@@H](CCC(=O)O)C(=O)N[C@@H](CO)C(=O)N[C@H](C(=O)N[C@H](C(=O)O)C(C)C)[C@@H](C)O)[C@@H](C)O)[C@@H](C)O` [HPV E6 #66 (modified)] (Biotin-TGSALQAWRHTSRQATESTV-OH; C-terminus assumed) yielded a Kd ([3]; PDZ Domain 1, 2, read-out: Peptide Optimal Conc (Kd by titration of the PL peptide)) of 1 µM and a Kd [3, 5] of 3.5 µM.

Molecule `CC[C@H](C)[C@H](NC(=O)[C@H](CCC(N)=O)NC(=O)[C@@H](NC(=O)[C@H](Cc1c[nH]cn1)NC(=O)[C@H](CCC(N)=O)NC(=O)[C@H](CC(=O)O)NC(=O)[C@H](CCC(=O)O)NC(=O)[C@H](CC(=O)O)NC(=O)[C@H](Cc1ccccc1)NC(=O)[C@@H]1CCCN1C(=O)[C@H](CCC(=O)O)NC(=O)[C@H](CC(N)=O)NC(=O)[C@H](CCC(=O)O)NC(=O)[C@@H]1CCCN1C(=O)[C@H](CC(=O)O)NC(=O)[C@H](CO)NC(=O)[C@H](CC(=O)O)NC(=O)CCCC[C@@H]1SC[C@@H]2NC(=O)N[C@@H]21)[C@@H](C)O)C(=O)N[C@H](C(=O)N[C@@H](CCCCN)C(=O)N[C@H](C(=O)O)C(C)C)[C@@H](C)O` [PTEN] has a Kd [2, 4] of 0.3 µM.

`CSCC[C@H](NC(=O)[C@H](C)NC(=O)[C@H](CCCNC(=N)N)NC(=O)CNC(=O)[C@@H](NC(=O)[C@H](Cc1c[nH]c2ccccc12)NC(=O)[C@H](CCCNC(=N)N)NC(=O)CNC(=O)CCCC[C@@H]1SC[C@@H]2NC(=O)N[C@@H]21)[C@@H](C)O)C(=O)N[C@@H](CO)C(=O)N[C@@H](C)C(=O)N[C@@H](Cc1c[nH]c2ccccc12)C(=O)N[C@@H](CCCCN)C(=O)N1CCC[C@H]1C(=O)N[C@H](C(=O)N[C@@H](CCCNC(=N)N)C(=O)N[C@@H](CCCNC(=N)N)C(=O)N[C@@H](CCC(=O)O)C(=O)N[C@H](C(=O)N[C@@H](CCC(=O)O)C(=O)N[C@H](C(=O)O)C(C)C)[C@@H](C)O)[C@@H](C)O` [HPV E6 #35 (modified)] (Biotin-GRWTGRAMSAWKPTRRETEV-OH; C-terminus assumed) showed a Kd [1, 5] of 0.8 µM and a Kd ([2]; PDZ KIAA0807(S), PDZ Domain 1, Protein Optimal Conc 0.5, read-out: Peptide Optimal Conc (Kd by titration of the PL peptide)) of 0.1 µM.

From US20050282743A1, “Molecular interactions in cells” (Arbor Vita Corporation, priority 2001, published 2005)
